Patent US5696153A, “Therapeutic regimen for treating patients” (priority 1996, dated 1997)

Experiment: Human toxicity, Q4D schedule (Study X)
Assay type: in vivo, human patients
Source text: […] It should be understood that these patients were deemed "salvage" cases almost all of whom had not responded to conventional treatment. All were otherwise thought to be beyond approved therapeutic regimens. Thus, the results and evaluation are anecdotal in nature and are not part of a controlled and statistical valid clinical trial.
[…] All were previously treated with chemotherapy and radiation for cancers of the breast (5), ovarian (2), brain (3), prostate (1), head and neck (4), bone (2), leiomyosarcoma (2), and melanoma (1).

CC(=O)O[C@H]1C(=O)[C@@]2(C)[C@H]([C@H](OC(=O)c3ccccc3)[C@]3(O)C[C@H](OC(=O)[C@H](O)[C@@H](NC(=O)c4ccccc4)c4ccccc4)C(C)=C1C3(C)C)[C@]1(OC(C)=O)CO[C@@H]1C[C@@H]2O [taxol]
Bilirubin toxicity: B Abnormal pre-III, Improved (Q4D 60 mg/m^2): 0 | Bilirubin toxicity: C Abnormal pre-III, Worsened or same (Q4D 60 mg/m^2): 0 | Bilirubin toxicity: D Normal pre-III, Worsened (Q4D 60 mg/m^2): 1 | Bilirubin toxicity: E Grades (Q4D 60 mg/m^2): 1 | HB toxicity: A None (Q4D 60 mg/m^2): 18 | HB toxicity: B Abnormal pre-III, Improved (Q4D 60 mg/m^2): 1 | HB toxicity: C Abnormal pre-III, Worsened or same (Q4D 60 mg/m^2): 2 | HB toxicity: D Normal pre-III, Worsened (Q4D 60 mg/m^2): 2 | HB toxicity: E Grades (Q4D 60 mg/m^2): 1,4 | PLT. toxicity: A None (Q4D 60 mg/m^2): 19 | PLT. toxicity: B Abnormal pre-III, Improved (Q4D 60 mg/m^2): 0 | PLT. toxicity: C Abnormal pre-III, Worsened or same (Q4D 60 mg/m^2): 3 | PLT. toxicity: D Normal pre-III, Worsened (Q4D 60 mg/m^2): 1 | PLT. toxicity: E Grades (Q4D 60 mg/m^2): 3 | SGOT toxicity: A None (Q4D 60 mg/m^2): 20 | SGOT toxicity: B Abnormal pre-III, Improved (Q4D 60 mg/m^2): 0 | SGOT toxicity: C Abnormal pre-III, Worsened or same (Q4D 60 mg/m^2): 0 | SGOT toxicity: D Normal pre-III, Worsened (Q4D 60 mg/m^2): 3 | WBC toxicity: A None (Q4D 60 mg/m^2): 15 | WBC toxicity: B Abnormal pre-III, Improved (Q4D 60 mg/m^2): 0 | WBC toxicity: C Abnormal pre-III, Worsened or same (Q4D 60 mg/m^2): 2 | WBC toxicity: D Normal pre-III, Worsened (Q4D 60 mg/m^2): 6 | GGT toxicity: A None (Q4D 60 mg/m^2, 11 pts): 9 | GGT toxicity: B Abnormal pre-III, Improved (Q4D 60 mg/m^2, 11 pts): 2 | GGT toxicity: C Abnormal pre-III, Worsened or same (Q4D 60 mg/m^2, 11 pts): 0 | GGT toxicity: D Normal pre-III, Worsened (Q4D 60 mg/m^2, 11 pts): 0 | Alb. toxicity: A None (Q4D 60 mg/m^2, 22 pts): 22 | Alb. toxicity: B Abnormal pre-III, Improved (Q4D 60 mg/m^2, 22 pts): 0 | Alb. toxicity: C Abnormal pre-III, Worsened or same (Q4D 60 mg/m^2, 22 pts): 0 | Alb. toxicity: D Normal pre-III, Worsened (Q4D 60 mg/m^2, 22 pts): 0 | BUN toxicity: A None (Q4D 60 mg/m^2, 22 pts): 21 | BUN toxicity: B Abnormal pre-III, Improved (Q4D 60 mg/m^2, 22 pts): 0 | BUN toxicity: C Abnormal pre-III, Worsened or same (Q4D 60 mg/m^2, 22 pts): 0 | BUN toxicity: D Normal pre-III, Worsened (Q4D 60 mg/m^2, 22 pts): 0 | Creat toxicity: A None (Q4D 60 mg/m^2, 22 pts): 21 | Creat toxicity: B Abnormal pre-III, Improved (Q4D 60 mg/m^2, 22 pts): 0 | Creat toxicity: C Abnormal pre-III, Worsened or same (Q4D 60 mg/m^2, 22 pts): 0 | Creat toxicity: D Normal pre-III, Worsened (Q4D 60 mg/m^2, 22 pts): 0 | LDH toxicity: A None (Q4D 60 mg/m^2, 22 pts): 18 | LDH toxicity: B Abnormal pre-III, Improved (Q4D 60 mg/m^2, 22 pts): 3 | LDH toxicity: C Abnormal pre-III, Worsened or same (Q4D 60 mg/m^2, 22 pts): 0 | LDH toxicity: D Normal pre-III, Worsened (Q4D 60 mg/m^2, 22 pts): 0 | T P toxicity: A None (Q4D 60 mg/m^2, 22 pts): 21 | T P toxicity: B Abnormal pre-III, Improved (Q4D 60 mg/m^2, 22 pts): 0 | T P toxicity: C Abnormal pre-III, Worsened or same (Q4D 60 mg/m^2, 22 pts): 0 | T P toxicity: D Normal pre-III, Worsened (Q4D 60 mg/m^2, 22 pts): 0 | toxicity or hypersensitivity vs currently recommended dosages (Q4D regimen, also without pretreatment): reduced toxicity or hypersensitivity reactions | CMAX taxol-associated toxicity (Q4D schedule): no clinically significant CMAX taxol-associated toxicity | abnormalities on UA., CA^++, Phos, CO2, Cl, Na^+, K^+, Mg^+ (in vivo): No abnormalities detected | alopecia (in vivo): 2/4 | diploplia for several hours each day following treatment (in vivo): One | malaise and fatigue (in vivo): Four | toxicity of infusion with separated treatment days (treatment days separated by 3-5 days): toxicity of the taxol infusion was diminished
